{"source": "patent US5541159A", "about": "“Calcitonin derivatives” (Sandoz Ltd., priority 1988, dated 1996)", "test_system": "ovulation", "test": "inhibition of ovulation in female rats (M. Marko and E. Fluckiger)", "assay_type": "in vivo", "conditions": "s.c.", "procedure": "The LHRH antagonists of the invention, in particular the compounds of formula XI inhibit luteinizing hormone secretion, e.g. as indicated by an inhibition of ovulation in animals. This test is effected according to M. Marko and E. Fluckiger, Experientia 30, […] (1974).\nAdult female rats of the Ivanovas Wistar strain (Sprague Dawley, Iva: SDIV, 200-250 g) are kept under standard conditions: 14 h light (from 0.400 to 18.00 hours); 24° C.; 55-60% rel. humidity; food and water ad libitum. Animals with regular 4-day cycles are injected on proestrus day at 13.00 h with the compound to be tested, subcutaneously or by the oral route. The next day at 9:00 a.m. the rats are sacrified and ova counted on both Fallopian tubes with the aid of a dissecting microscope. Only when no eggs are found is ovulation considered to be inhibited. The mean number of eggs per ovulating rat in each treatment groups is also determined."}
{"substance": "[N-Ac-DPhe(Cl)^1,2, DTrp^3,DAla^10 ]-LHRH", "values": [{"measurement": "ED50 inhibition of ovulation", "value": 0.08, "unit": "mg/kg"}]}
